Data as given in US10500142B2, “Oral care compositions” (COLGATE-PALMOLIVE COMPANY, priority 2015, dated 2019).

Legend:
[1] = SnCl2.2H2O/pyrophosphate solutions: appearance on preparation and aging at room temperature; format: physicochemical; conditions: 3% SnCl2.2H2O; aged overnight at room temperature
Experimental: Solutions are prepared by dissolving TSPP in deionized water (mixing under heat if necessary) and then adding 0.6 g of SnCl2.2H2O to make 20-gram solutions.
The solutions with a P/Sn molar ratio spanning from 0.5 to 5 containing 3% SnCl2.2H2O are aged overnight at room temperature. A 3% SnCl2.2H2O solution is used as a control.
Solutions are prepared by dissolving TKPP in deionized water (mixing under heat if necessary) and then adding 0.6 g SnCl2.2H2O to make 20-g solutions.

[2] = Solution preparation: clarity / dissolution of SnF2 with TSPP or TKPP in water; format: physicochemical; conditions: 2% SnF2 in water with TSPP or TKPP; as prepared
Experimental: The solutions are prepared by first dissolving TSPP or TKPP in water (mixing under high heat if necessary) and then adding a 20% stannous fluoride solution to the clear solution with an automatic pipet. […] All of the solutions contain 2% SnF2.

| Structure (SMILES) | appearance after aging overnight [1] | appearance / dissolution of the solution on preparation [2] |
| --- | --- | --- |
| O.O.[Cl][Sn][Cl] [3% SnCl2.2H2O solution, SnCl2.2H2O] | cloudy precipitate that settles | – |
| [F][Sn][F] [2% stannous fluoride solution, stannous fluoride] | – | precipitate almost immediately after dissolution |
